Data on 3 compounds can be found in BindingDB's records for doi:10.1021/cb4002552 (University of California, 2013).

The assay addresses Neutrophil gelatinase-associated lipocalin (Homo sapiens, UniProt P80188). The assay can be described thus: Fluorescence quenching titrations. As to conditions: pH 7.4. How it is done: The ligand solutions (10uM siderophore, TBS with 5% (v/v) DMSO, pH 7.4) were prepared from 4mM stock solution in DMSO. The protein solution was prepared as previously reported. Small amounts of ligand solution were mixed with the protein solution and equilibrated for at least 4 min before fluorescence measurement. The data was fit to a one-to-one binding model with two parameters, Kd and fluorescence response, using the program DYNAFIT.

Structures are written as SMILES.

Neutrophil gelatinase-associated lipocalin, sequence (P80188 whole entry): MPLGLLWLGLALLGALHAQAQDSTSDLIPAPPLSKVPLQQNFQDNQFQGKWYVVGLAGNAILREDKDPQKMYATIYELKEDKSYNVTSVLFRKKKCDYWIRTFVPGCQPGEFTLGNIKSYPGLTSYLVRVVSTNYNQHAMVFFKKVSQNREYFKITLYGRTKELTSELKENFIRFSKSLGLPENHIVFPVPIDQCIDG

Take `C[C@@H](O)[C@H](NC(=O)c1cccc(O)c1O)C(=O)N(CCCNC(=O)c1cccc(O)c1O)CCCNC(=O)c1cccc(O)c1O` [Fluvibactin A]: the dissociation constant Kd stood at 12 nM.
The value for `C[C@H]1OC(c2cccc(O)c2O)=N[C@@H]1C(=O)N(CCCNC(=O)c1cccc(O)c1O)CCCNC(=O)c1cccc(O)c1O` [Fluvibactin] was 34 nM.
In turn, `C[C@@H](O)[C@H](NC(=O)c1cccc(O)c1O)C(=O)NCCCN(CCCNC(=O)c1cccc(O)c1O)C(=O)[C@@H](NC(=O)c1cccc(O)c1O)[C@@H](C)O` [Vibriobactin A] displayed a Kd of 18 nM.
